Activity calls are given as the source filed them. No cut-off for these calls is given here.
Each compound was assayed on Candida albicans (assay: Antifungal activity against Candida albicans).
Type: functional, organism-based

Row | SMILES | Activity
1 | CC(C)(O)CC[C@@H](O)[C@](C)(O)[C@H]1CC[C@@]2(O)C3=CC(=O)[C@@H]4C[C@@H](O)[C@@H](O)C[C@]4(C)[C@H]3CC[C@]12C | inactive
2 | CNc1nc2c(C)ccc3nc(N(C)C)[nH]c3c-2n1 | inactive
3 | CC(C)CC[C@H](O)[C@](C)(O)[C@H]1CC[C@@]2(O)C3=CC(=O)[C@@H]4C[C@@H](O)[C@@H](O)C[C@]4(C)[C@H]3[C@H](O)C[C@]12C | inactive
4 | CC(C)(O)CC[C@H](O)[C@](C)(O)[C@H]1CC[C@@]2(O)C3=CC(=O)C4=C[C@@H](O)[C@@H](O)C[C@]4(C)[C@H]3CC[C@]12C | inactive
